# Assay results from patent US20240360154A1, “AROYL SUBSTITUTED TRICYCLIC COMPOUND, PREPARATION METHOD THEREFOR AND USE THEREOF” (GENFLEET THERAPEUTICS (SHANGHAI) INC., priority 2020, published 2024).
# How the values were obtained:
# [1] = system: TMD-8 cells; test: TMD-8 proliferation inhibition experiment; type: cell-based; conditions: human diffuse large B lymphoma cells, three days incubation
# Method in brief: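 Log-phase cells seeded in 384-well plates (600 TMD-8 in RPMI 1640, 2000 OCI-LY10 in IMDM, both 10% FBS), then exposed one day later to 3-fold compound dilutions at 0.25% DMSO for three days. ADP-Glo luminescence read; inhibition versus DMSO and medium-only blank, IC50 by four-parameter fit.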
# [2] = molecular target: p-BTK (WT) (Homo sapiens (Human), UniProt Q06187); test: p-BTK cell experiment, HEK293 transfected with WT-BTK plasmid (P-BTK Y223 sandwich ELISA); type: cell-based; conditions: HEK293 cells, compound cultured for two hours
# p-BTK (WT), sequence (Q06187 whole entry): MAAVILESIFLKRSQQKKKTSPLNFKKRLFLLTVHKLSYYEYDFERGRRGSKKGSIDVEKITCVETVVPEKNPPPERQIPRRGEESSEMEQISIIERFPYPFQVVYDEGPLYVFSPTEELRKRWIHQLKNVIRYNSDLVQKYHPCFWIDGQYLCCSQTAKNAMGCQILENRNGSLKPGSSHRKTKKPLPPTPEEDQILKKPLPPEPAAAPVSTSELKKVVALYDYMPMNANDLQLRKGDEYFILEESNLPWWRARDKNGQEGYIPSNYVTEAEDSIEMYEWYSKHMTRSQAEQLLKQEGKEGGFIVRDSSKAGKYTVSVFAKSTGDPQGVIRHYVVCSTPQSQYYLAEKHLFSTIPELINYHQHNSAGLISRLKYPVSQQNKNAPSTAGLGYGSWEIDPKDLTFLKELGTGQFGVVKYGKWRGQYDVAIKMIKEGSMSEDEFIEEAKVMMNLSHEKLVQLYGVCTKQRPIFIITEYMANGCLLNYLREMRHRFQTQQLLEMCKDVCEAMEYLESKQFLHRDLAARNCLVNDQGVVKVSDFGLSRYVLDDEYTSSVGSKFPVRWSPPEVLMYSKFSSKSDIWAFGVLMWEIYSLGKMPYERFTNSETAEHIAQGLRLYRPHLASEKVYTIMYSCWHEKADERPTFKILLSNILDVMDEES
# Protocol: (§1) Day 1: HEK293 cells (ADDEXBIO, T0011001) at logarithmic growth phase were taken, digested with enzyme EDTA, collected and counted, and 2E6 cells were inoculated in a 10 cm culture dish and cultured overnight. Day 2: A mixed solution containing 6 μg of WT-BTK/C481S-BTK plasmid and 18 μL of FuGENE HD transfection reagent was prepared by using 1000 μL of Opti-MEM. After standing at room temperature for 10 minutes, the mixed solution was slowly added to the culture dish with a pipettor and cultured overnight. Day 3: The culture dish was taken out, and the cells were digested with enzyme EDTA, collected and counted, and 1E4 cells were inoculated in a 96-well cell culture plate and cultured overnight. A 3.16-fold gradient concentration stock solution of 1000× compound was prepared using DMSO, and placed at room temperature. Day 4: A prepared 1000× compound stock solution was taken, and diluted 200-fold to 5× compound stock solution with culture medium. 5× compound stock solution was added to each cell culture well with a final concentration of 1× compound stock solution and a DMSO content of 0.1%. DMSO was used as an experimental control. After the compound was added and cultured for two hours, the residual culture medium was removed. 100 μL of cell lysis buffer was added to each well, stood on ice for 30 minutes, and ultrasonically lysed with ice water for 5 minutes. After diluting the cell lysate in proportion, 80 μL of the mixture was transfer to an ELISA plate, and 80 μL of cell lysis buffer was added to the blank well. After incubating in an incubator at 37° C. for 2 hours, the plate was taken and the antibody incubation and color development termination operation were completed according to the instructions of Pathscan P-BTK (Y223) Sandwich ELISA Kit (Cell Signaling #23843 CA), and finally the OD value was read. The inhibition rate of the compound (%)=(ODcontrol−ODcompound)/(ODcontrol−ODblank)×100% was calculated. The compound gradient dilution concentration and the corresponding cell proliferation inhibition rate were fit by using Prism 8 four-parameter method, and IC50 value was calculated.
# [3] = molecular target: BTK (Homo sapiens (Human), UniProt Q06187); test: BTK enzyme experiment (ADP-Glo kinase assay); type: biochemical; conditions: 10 nM BTK, ATP 125 μM, Poly(Glu4, Tyr1), 90 minutes at 20° C.; read-out: BTK(WT) IC50
# BTK, sequence (Q06187 whole entry): as above
# Method in brief: (§2)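 Wild-type or C481S BTK, added as 2× solution at 10 nM, preincubated 10 min with 3-fold compound dilutions in 50 mM HEPES pH 7.5, 10 mM MgCl2, 2 mM DTT, 0.0015% Brij-35. ADP-Glo luminescence norm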
# [4] = molecular target: p-BTK (C481S) (Homo sapiens (Human), UniProt Q06187, C481S); test: p-BTK cell experiment, HEK293 transfected with C481S-BTK plasmid (P-BTK Y223 sandwich ELISA); type: cell-based; conditions: HEK293 cells, compound cultured for two hours
# p-BTK (C481S), sequence (Q06187 whole entry C481S): as the sequence (Q06187 whole entry) above, with C481S counted along it
# Protocol: as §1
# [5] = molecular target: BTK (C481S) (Homo sapiens (Human), UniProt Q06187, C481S); test: BTK C481S enzyme experiment (ADP-Glo kinase assay); type: biochemical; conditions: 10 nM BTK C481S, ATP 125 μM, Poly(Glu4, Tyr1), 90 minutes at 20° C.
# BTK (C481S), sequence (Q06187 whole entry C481S): as the sequence (Q06187 whole entry) above, with C481S counted along it
# Method in brief: as §2
SMILES,IC50 [1],IC50 [2],IC50 [3],IC50 [4],IC50 [5],"IC50 ([1]; Homo sapiens, TMD8, 72 h)"
"CC(=O)N1CC[C@]2(C1)Nc1c(cnc3[nH]cc(C(=O)c4ccc(Oc5ccccc5)cc4Cl)c13)NC2=O (single isomer, unassigned) [Z4-1]",305 nM,70.8 nM,17 nM,97.6 nM,6.8 nM,
"C[C@@]1(CO)Nc2c(cnc3[nH]cc(C(=O)c4ccc(Oc5ccccc5)cc4Cl)c23)NC1=O (single isomer, unassigned) [Z9-2]",73.8 nM,62.6 nM,9.5 nM,134 nM,10.8 nM,
"O=C(c1ccc(Oc2ccccc2)cc1Cl)c1c[nH]c2ncc3c(c12)N[C@]1(CCCOC1)C(=O)N3 (single isomer, unassigned) [Z16-1]",42.8 nM,17.3 nM,7.6 nM,36.6 nM,9.1 nM,
"O=C(c1ccc(Oc2ccccc2)cc1Cl)c1c[nH]c2ncc3c(c12)N[C@@]1(CCCOC1)C(=O)N3 (single isomer, unassigned) [Z16-2]",23 nM,10.4 nM,5 nM,10.4 nM,5.6 nM,
"O=C(c1ccc(Oc2ccccc2)cc1Cl)c1c[nH]c2ncc3c(c12)N[C@@]1(CC[C@@H](O)C1)C(=O)N3 (single isomer, unassigned) [Z24-a]",113 nM,46.9 nM,5.5 nM,50 nM,8.4 nM,
"O=C(c1ccc(Oc2ccccc2)cc1Cl)c1c[nH]c2ncc3c(c12)N[C@]1(CC[C@H](O)C1)C(=O)N3 (single isomer, unassigned) [Z24-b]",80.8 nM,39.5 nM,4.2 nM,39 nM,5.8 nM,
"O=C(c1ccc(Oc2ccccc2)cc1Cl)c1c[nH]c2ncc3c(c12)N[C@]1(CC[C@@H](O)C1)C(=O)N3 (single isomer, unassigned) [Z24-c]",50.6 nM,19.6 nM,3.2 nM,16.2 nM,3 nM,
"O=C(c1ccc(Oc2ccccc2)cc1Cl)c1c[nH]c2ncc3c(c12)N[C@@]1(CC[C@H](O)C1)C(=O)N3 (single isomer, unassigned) [Z24-d]",52 nM,16.9 nM,3.4 nM,15.3 nM,3.1 nM,
"COC1CCC2(C1)Nc1c(cnc3[nH]cc(C(=O)c4ccc(Oc5ccccc5)cc4Cl)c13)NC2=O (single isomer, unassigned) [Z25-2, 9′-(2-chloro-4-phenoxybenzoyl)-3-methoxy-4′,7′-dihydrospiro[cyclopentane-1,2′-pyrrolo[3′,2′:5,6]pyrido[3,4-b]pyrazin]-3′(1′H)-one]",80.4 nM,15.2 nM,14.7 nM,32.7 nM,8.7 nM,
"N#C[C@@H]1CC[C@]2(C1)Nc1c(cnc3[nH]cc(C(=O)c4ccc(Oc5ccccc5)cc4Cl)c13)NC2=O (single isomer, unassigned) [Z26-1]",47.7 nM,31.5 nM,15.6 nM,38.4 nM,15.4 nM,
"COCC1(C)Nc2c(cnc3[nH]cc(C(=O)c4ccc(Oc5cc(C)ccn5)cc4Cl)c23)NC1=O (single isomer, unassigned) [Z64-1, 9-(2-chloro-4-((4-methylpyridin-2-yl)oxy)benzoyl)-2-(methoxymethyl)-2-methyl-1,2,4,7-tetrahydro-3H-pyrrolo[3′,2′:5,6]pyrido[3,4-b]pyrazin-3-one]",,58.5 nM,6.3 nM,198 nM,10.7 nM,194 nM
"[2H]C([2H])([2H])OC[C@]1(C)Nc2c(cnc3[nH]cc(C(=O)c4ccc(Oc5ccccc5)cc4Cl)c23)NC1=O (single isomer, unassigned) [Z66-1]",,29.6 nM,6.7 nM,38.1 nM,3.8 nM,94.8 nM
"CCOC[C@]1(C)Nc2c(cnc3[nH]cc(C(=O)c4ccc(Oc5ccccc5)cc4Cl)c23)NC1=O (single isomer, unassigned) [Z67-1]",,37.3 nM,9.6 nM,42.6 nM,10.3 nM,161 nM
"COC[C@@]1(C)Nc2c(cnc3[nH]cc(C(=O)c4ccc(Oc5ccccc5)cc4F)c23)NC1=O (single isomer, unassigned) [Z71-1]",180 nM,32.3 nM,8.5 nM,40.3 nM,8.3 nM,
"CC1(CO)Nc2c(cnc3[nH]cc(C(=O)c4ccc(Oc5ccccc5)cc4Cl)c23)NC1=O (stereo not shown) [Z9, 9-(2-chloro-4-phenoxybenzoyl)-2-(hydroxymethyl)-2-methyl-1,2,4,7-tetrahydro-3H-pyrrolo[3′,2′:5,6]pyrido[3,4-b]pyrazin-3-one]",,23.5 nM,22.8 nM,58 nM,14.5 nM,232 nM
COC[C@]1(C)Nc2c(cnc3[nH]cc(C(=O)c4ccc(Oc5ccccc5)cc4Cl)c23)NC1=O [Z13-1],37.9 nM,36.2 nM,11.4 nM,42.2 nM,9.8 nM,
O=C(c1ccc(Oc2ccccc2)cc1Cl)c1c[nH]c2ncc3c(c12)NC1(CCOCC1)C(=O)N3 [Z14],57 nM,31.5 nM,7.6 nM,27.6 nM,5.1 nM,
COCC[C@]1(C)Nc2c(cnc3[nH]cc(C(=O)c4ccc(Oc5ccccc5)cc4Cl)c23)NC1=O [Z78-2],254 nM,68.3 nM,10.2 nM,119 nM,17.4 nM,
"COC[C@]1(C)Nc2c(cnc3[nH]cc(C(=O)c4ccc(Oc5nccc(C)c5F)cc4Cl)c23)NC1=O [Z132, 9-(2-chloro-4-((3-fluoro-4-methylpyridin-2-yl)oxy)benzoyl)-2-(methoxymethyl)-2-methyl-4,7-dihydro-1H-pyrrolo[3′,2′:5,6]pyrido[3,4-b]pyrazin-3(2H)-one]",,16.5 nM,11.8 nM,36.1 nM,15.5 nM,133 nM
"COC[C@]1(C)Nc2c(cnc3[nH]cc(C(=O)c4ccc(Oc5ccccn5)cc4Cl)c23)NC1=O [Z136, (S)-9-(2-chloro-4-(pyridin-2-yloxy)benzoyl)-2-(methoxymethyl)-2-methyl-1,2,4,7-tetrahydro-3H-pyrrolo[3′,2′:5,6]pyrido[3,4-b]pyrazin-3-one]",,80.5 nM,6.7 nM,114 nM,7.6 nM,178 nM
CN(C)C1CCC2(C1)Nc1c(cnc3[nH]cc(C(=O)c4ccc(Oc5ccccc5)cc4Cl)c13)NC2=O (stereo not shown) [Z137],139 nM,50.1 nM,12.9 nM,49.4 nM,10.3 nM,
"O=C(c1ccc(Oc2ccccc2)cc1Cl)c1c[nH]c2ncc3c(c12)NC1(CCC(N2CCOCC2)C1)C(=O)N3 (stereo not shown) [Z141, 9′-(2-chloro-4-phenoxybenzoyl)-3-morpholino-4′,7′-dihydrospiro[cyclopentane-1,2′-pyrrolo[3′,2′:5,6]pyrido[3,4-b]pyrazin]-3′(1′H)-one]",,20.5 nM,11.5 nM,22.4 nM,5.1 nM,58.4 nM
"[2H]C([2H])([2H])[C@@]1(COC)Nc2c(cnc3[nH]cc(C(=O)c4ccc(Oc5ccccc5)cc4Cl)c23)NC1=O [Z149, (S)-9-(2-chloro-4-phenoxybenzoyl)-2-(methoxymethyl)-2-(methyl-d3)-1,2,4,7-tetrahydro-3H-pyrrolo[3′,2′:5,6]pyrido[3,4-b]pyrazin-3-one]",,19.3 nM,23.5 nM,33 nM,13.2 nM,130 nM
